Reference: patent publication US12643887B2, “Heterocyclic derivatives with cardiomyocyte proliferation activity for treatment of heart diseases” (Tongji University, priority 2019, dated 2026)
Like-named read-outs stand apart in the source and are kept apart here.

Tests used:
[1] = target: T1, human HIPK2 (Homo sapiens, UniProt Q9H2X6); experiment: HIPK2 enzyme assay (ADP-Glo); format: biochemical
T1 construct: Recombinant human HIPK2 (1-640); GST (N); purchased SignalChem H04-11BG; host or cells: Sf9 insect cells
T1 sequence (Q9H2X6 1-640): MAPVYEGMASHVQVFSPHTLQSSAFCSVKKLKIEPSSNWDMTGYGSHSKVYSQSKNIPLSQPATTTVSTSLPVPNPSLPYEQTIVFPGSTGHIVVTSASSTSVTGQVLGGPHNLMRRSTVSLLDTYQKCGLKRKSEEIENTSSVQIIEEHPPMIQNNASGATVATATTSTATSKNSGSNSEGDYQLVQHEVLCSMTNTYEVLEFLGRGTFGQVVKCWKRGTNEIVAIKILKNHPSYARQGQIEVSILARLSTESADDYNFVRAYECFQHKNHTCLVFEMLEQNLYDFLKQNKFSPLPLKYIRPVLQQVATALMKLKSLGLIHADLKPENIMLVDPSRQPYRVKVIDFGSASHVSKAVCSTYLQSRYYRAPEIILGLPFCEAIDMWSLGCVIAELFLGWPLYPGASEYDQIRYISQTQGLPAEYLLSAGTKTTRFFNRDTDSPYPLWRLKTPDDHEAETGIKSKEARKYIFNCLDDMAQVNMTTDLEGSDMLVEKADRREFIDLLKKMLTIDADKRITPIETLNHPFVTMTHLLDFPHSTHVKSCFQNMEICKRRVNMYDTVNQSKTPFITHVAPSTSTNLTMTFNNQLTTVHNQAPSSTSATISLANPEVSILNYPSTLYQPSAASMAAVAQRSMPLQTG
Procedure, shortened: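 GST-tagged HIPK2 (1-640) from Sf9, 1 nM, preincubated 30 min at 25° C with inhibitor in 40 mM Tris pH 7.5, 20 mM MgCl2. Reaction ran 90 min at 25° C with GST-MBP substrate at 0.05 mg/ml and 5 μM ATP. ADP-Glo luminescence; IC50 by four-parameter logistic fit.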

[2] = tested on: Neonatal Rat Ventricular Myocytes (NRVMs); experiment: Myocyte proliferation assay (EdU assay) in neonatal rat ventricular myocytes; format: cell-based; details: growth relative to blank myocyte growth without compound added; for Avg 1 uM (average myocyte proliferation): compound 1 uM; for Avg 3 uM (average myocyte proliferation): compound 3 uM; for Avg 10 uM (average myocyte proliferation): compound 10 uM
Procedure, shortened: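 After 36 h compound exposure (1, 3 or 10 uM in 6% FBS/ITS DMEM, following 24 h low-serum culture), NRVMs were pulsed with EdU for 12 h. Proliferation scored by automated confocal imaging of EdU click chemistry, ab8295 immunostaining and DAPI nuclei in fixed cultures.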

[3] = ADP-Glo, ATP 5 μM, read-out: HIPK2 IC50

For `CN(C1=N/C(=C\c2ccc3[nH]ccc3c2)C(=O)N1)c1ccc2ncsc2c1` [Example 87, (Z)-5-((1H-indol-5-yl)methylene)-2-(benzo[d]thiazol-6-yl(methyl)amino)-3,5-dihydro-4H-imidazol-4-one], the IC50 [1, 3] was > 10000 nM, the “Avg 1 uM (average myocyte proliferation)” value [2] was “** (10%-50%)” and the “Avg 3 uM (average myocyte proliferation)” value [2] was “** (10%-50%)”.
With `Cc1nc2ccc(NC3=N/C(=C\c4ccc5ncsc5c4)C(=O)N3)cc2s1` [Example 90, (Z)-5-(benzo[d]thiazol-6-ylmethylene)-2-((2-methylbenzo[d]thiazol-6-yl)amino)-3,5-dihydro-4H-imidazol-4-one] the IC50 [1, 3] was < 100 nM, the “Avg 1 uM (average myocyte proliferation)” value [2] was “** (10%-50%)” and the “Avg 3 uM (average myocyte proliferation)” value [2] was “** (10%-50%)”.
With `CN(C1=N/C(=C\c2ccc3ncccc3c2)C(=O)N1)c1ccc2ncsc2c1` [Example 85, (Z)-2-(benzo[d]thiazol-6-yl(methyl)amino)-5-(quinolin-6-ylmethylene)-3,5-dihydro-4H-imidazol-4-one] the IC50 [1, 3] was > 10000 nM, the “Avg 1 uM (average myocyte proliferation)” value [2] was “* (<10% growth relative to blank myocyte growth without compound added.)” and the “Avg 3 uM (average myocyte proliferation)” value [2] was “** (10%-50%)”.
In the case of `CC(=O)N(C1=N/C(=C\c2ccc3c(c2)OCO3)C(=O)N1)c1ccccc1` [Example 5, (Z)—N-(4-(benzo[d][1,3]dioxol-5-ylmethylene)-5-oxo-4,5-dihydro-1H-imidazol-2-yl)-N-phenylacetamide], the IC50 [1] is reported as 1000 to 10000 nM, the “Avg 1 uM (average myocyte proliferation)” value [2] is reported as “** (10%-50%)” and the “Avg 3 uM (average myocyte proliferation)” value [2] is reported as “** (10%-50%)”. The “Avg 10 uM (average myocyte proliferation)” value [2] was “*** (>50%)”.
For `O=C1NC(N(Cc2ccccc2)c2ccc3ncsc3c2)=N/C1=C\c1ccc2ncsc2c1` [Example 99, (Z)-2-(benzo[d]thiazol-6-yl(benzyl)amino)-5-(benzo[d]thiazol-6-ylmethylene)-3,5-dihydro-4H-imidazol-4-one], the IC50 [1, 3] was 100 to 1000 nM, the “Avg 1 uM (average myocyte proliferation)” value [2] was “** (10%-50%)” and the “Avg 3 uM (average myocyte proliferation)” value [2] was “* (<10% growth relative to blank myocyte growth without compound added.)”.
`CCN(C1=N/C(=C\c2ccc3c(c2)OCO3)C(=O)N1)c1ccccc1` [Example 4, (Z)-5-(benzo[d][1,3]dioxol-5-ylmethylene)-2-(ethyl(phenyl)amino)-3,5-dihydro-4H-imidazol-4-one] was tested, and the IC50 [1, 3] was > 10000 nM, the “Avg 1 uM (average myocyte proliferation)” value [2] was “** (10%-50%)” and the “Avg 3 uM (average myocyte proliferation)” value [2] was “** (10%-50%)”. For the same compound, the “Avg 10 uM (average myocyte proliferation)” value [2] was “** (10%-50%)”.
In the case of `O=C1NC(Nc2ccc3sccc3c2)=N/C1=C\c1ccc2ncsc2c1` [Example 101, (Z)-2-(benzo[b]thiophen-5-ylamino)-5-(benzo[d]thiazol-6-ylmethylene)-3,5-dihydro-4H-imidazol-4-one], the IC50 [1, 3] is reported as > 10000 nM, the “Avg 1 uM (average myocyte proliferation)” value [2] is reported as “** (10%-50%)” and the “Avg 3 uM (average myocyte proliferation)” value [2] is reported as “* (<10% growth relative to blank myocyte growth without compound added.)”.
For `O=C1NC(Nc2ccc3ncsc3c2)=N/C1=C\c1ccc2nccnc2c1` [Example 94, (Z)-2-(benzo[d]thiazol-6-ylamino)-5-(quinoxalin-6-ylmethylene)-3,5-dihydro-4H-imidazol-4-one], the IC50 [1, 3] was > 10000 nM, the “Avg 1 uM (average myocyte proliferation)” value [2] was “* (<10% growth relative to blank myocyte growth without compound added.)” and the “Avg 3 uM (average myocyte proliferation)” value [2] was “* (<10% growth relative to blank myocyte growth without compound added.)”.
For `Nc1ccc(NC2=N/C(=C\c3ccc4ncsc4c3)C(=O)N2)cc1` [Example 98, (Z)-2-((4-aminophenyl)amino)-5-(benzo[d]thiazol-6-ylmethylene)-3,5-dihydro-4H-imidazol-4-one], the IC50 [1, 3] was 100 to 1000 nM, the “Avg 1 uM (average myocyte proliferation)” value [2] was “** (10%-50%)” and the “Avg 3 uM (average myocyte proliferation)” value [2] was “** (10%-50%)”.
`O=C1NC(Nc2ccc3ncsc3c2)=N/C1=C\c1cncs1` [Example 92, (Z)-2-(benzo[d]thiazol-6-ylamino)-5-(thiazol-5-ylmethylene)-3,5-dihydro-4H-imidazol-4-one] was tested, and the IC50 [1, 3] was 100 to 1000 nM, the “Avg 1 uM (average myocyte proliferation)” value [2] was “* (<10% growth relative to blank myocyte growth without compound added.)” and the “Avg 3 uM (average myocyte proliferation)” value [2] was “* (<10% growth relative to blank myocyte growth without compound added.)”.
`CC(=O)N(C1=N/C(=C\c2ccc3ncsc3c2)C(=O)N1)c1ccc2ncsc2c1` [Example 91, (Z)—N-(benzo[d]thiazol-6-yl)-N-(4-(benzo[d]thiazol-6-ylmethylene)-5-oxo-4,5-dihydro-1H-imidazol-2-yl)acetamide] was tested, and the IC50 [1, 3] was < 100 nM, the “Avg 1 uM (average myocyte proliferation)” value [2] was “* (<10% growth relative to blank myocyte growth without compound added.)” and the “Avg 3 uM (average myocyte proliferation)” value [2] was “* (<10% growth relative to blank myocyte growth without compound added.)”.
For `COCCN(C1=N/C(=C\c2ccc3ncsc3c2)C(=O)N1)c1ccc2ncsc2c1` [Example 89, (Z)-2-(benzo[d]thiazol-6-yl(2-methoxyethyl)amino)-5-(benzo[d]thiazol-6-ylmethylene)-3,5-dihydro-4H-imidazol-4-one], the IC50 [1, 3] was 100 to 1000 nM, the “Avg 1 uM (average myocyte proliferation)” value [2] was “** (10%-50%)” and the “Avg 3 uM (average myocyte proliferation)” value [2] was “* (<10% growth relative to blank myocyte growth without compound added.)”.
In the case of `O=C1NC(Nc2ccc3ncsc3c2)=N/C1=C\c1ccc2cn[nH]c2c1` [Example 95, (Z)-5-((1H-indazol-6-yl)methylene)-2-(benzo[d]thiazol-6-ylamino)-3,5-dihydro-4H-imidazol-4-one], the IC50 [1, 3] is reported as > 10000 nM, the “Avg 1 uM (average myocyte proliferation)” value [2] is reported as “* (<10% growth relative to blank myocyte growth without compound added.)” and the “Avg 3 uM (average myocyte proliferation)” value [2] is reported as “* (<10% growth relative to blank myocyte growth without compound added.)”.
With `Cn1cnc2ccc(NC3=N/C(=C\c4ccc5ncsc5c4)C(=O)N3)cc21` [Example 93, (Z)-5-(benzo[d]thiazol-6-ylmethylene)-2-((1-methyl-1H-benzo[d]imidazol-6-yl)amino)-3,5-dihydro-4H-imidazol-4-one] the IC50 [1, 3] was 100 to 1000 nM, the “Avg 1 uM (average myocyte proliferation)” value [2] was “* (<10% growth relative to blank myocyte growth without compound added.)” and the “Avg 3 uM (average myocyte proliferation)” value [2] was “** (10%-50%)”.
`CC(C)Nc1nc2ccc(NC3=N/C(=C\c4ccc5ncsc5c4)C(=O)N3)cc2s1` [Example 100, (Z)-5-(benzo[d]thiazol-6-ylmethylene)-2-((2-(isopropylamino)benzo[d]thiazol-6-yl)amino)-3,5-dihydro-4H-imidazol-4-one] was tested, and the IC50 [1, 3] was 100 to 1000 nM, the “Avg 1 uM (average myocyte proliferation)” value [2] was “** (10%-50%)” and the “Avg 3 uM (average myocyte proliferation)” value [2] was “** (10%-50%)”.
`O=C1NC(Nc2ccc3nc[nH]c3c2)=N/C1=C\c1ccc2ncsc2c1` [Example 97, (Z)-2-((1H-benzo[d]imidazol-6-yl)amino)-5-(benzo[d]thiazol-6-ylmethylene)-3,5-dihydro-4H-imidazol-4-one] was tested, and the IC50 [1, 3] was < 100 nM, the “Avg 1 uM (average myocyte proliferation)” value [2] was “* (<10% growth relative to blank myocyte growth without compound added.)” and the “Avg 3 uM (average myocyte proliferation)” value [2] was “* (<10% growth relative to blank myocyte growth without compound added.)”.
With `O=C1NC(=S)N/C1=C\c1ccc2sccc2c1` [Example 96, (Z)-5-(benzo[b]thiophen-5-ylmethylene)-2-thioxoimidazolidin-4-one] the IC50 [1, 3] was > 10000 nM, the “Avg 1 uM (average myocyte proliferation)” value [2] was “* (<10% growth relative to blank myocyte growth without compound added.)” and the “Avg 3 uM (average myocyte proliferation)” value [2] was “* (<10% growth relative to blank myocyte growth without compound added.)”.
`CN1C(=O)/C(=C/c2ccc3ncsc3c2)N=C1Nc1ccc2ncsc2c1` [Example 88, (Z)-2-(benzo[d]thiazol-6-ylamino)-5-(benzo[d]thiazol-6-ylmethylene)-3-methyl-3,5-dihydro-4H-imidazol-4-one] was tested, and the IC50 [1, 3] was > 10000 nM, the “Avg 1 uM (average myocyte proliferation)” value [2] was “* (<10% growth relative to blank myocyte growth without compound added.)” and the “Avg 3 uM (average myocyte proliferation)” value [2] was “* (<10% growth relative to blank myocyte growth without compound added.)”.
With `CN(C1=N/C(=C\c2ccc3ncsc3c2)C(=O)N1)c1ccc2c(c1)ncn2C` [Example 86, (Z)-5-(benzo[d]thiazol-6-ylmethylene)-2-(methyl(1-methyl-1H-benzo[d]imidazol-5-yl)amino)-3,5-dihydro-4H-imidazol-4-one] the IC50 [1, 3] was 1000 to 10000 nM, the “Avg 1 uM (average myocyte proliferation)” value [2] was “** (10%-50%)” and the “Avg 3 uM (average myocyte proliferation)” value [2] was “** (10%-50%)”.
